Each structure is given as a SMILES string. Structures can show the parent of a compound that is named as a salt.

Data on five compounds can be found in patent US20100260674A1, “QUINAZOLINE DERIVATIVES AND METHODS OF TREATMENT” (Concert Pharmaceuticals, Inc., priority 2006, published 2010).

The first data set in a line: Metabolic stability in pooled human liver microsomes. As to conditions: 0.5 mg/mL HLM. How it is done: The metabolic stability of compounds of the invention was tested using pooled liver microsomal incubations. Full scan LC-MS analysis was then performed to detect major metabolites. Samples of the test compounds, exposed to pooled human liver microsomes, were analyzed using HPLC-MS (or MS/MS) detection. For determining metabolic stability, multiple reaction monitoring (MRM) was used to measure the disappearance of the test compounds. Q1 full scans were used to detect the major metabolites.
Experimental Procedures. Human liver microsomes (“HLM”; 20 mg/mL) are obtained from Xenotech, LLC (Lenexa, Kans.). β-nicotinamide adenine dinucleotide phosphate, reduced form (NADPH), magnesium chloride (MgCl2), and dimethyl sulfoxide (DMSO) are purchased from Sigma-Aldrich.
Stock solutions of test compounds (7.5 mM) were prepared in DMSO. […] The 20 mg/mL human liver microsomes were diluted to 0.625 mg/mL in 0.1 M potassium phosphate buffer, pH 7.4, containing 3 mM MgCl2. The diluted microsomes (375 μL) were added to wells of a 96-well deep-well polypropylene plate in triplicate. […] Reactions were initiated by addition of 125 μL of pre-warmed NADPH solution (8 mM NADPH in 0.1M potassium phosphate buffer, pH 7.4, containing 3 mM MgCl2). […] The reaction mixtures were incubated at 37° C., and 50 μL aliquots were removed at 0, 5, 10, 20, and 30 minutes and added to shallow-well 96-well plates which contained 50 μL of ice-cold ACN with internal standard to stop the reactions. The plates were stored at 4° C. for 20 minutes after which 100 μL of water was added to the wells of the plate before centrifugation to pellet precipitated proteins. Supernatants were transferred to another 96-well plate and analyzed for amounts of parent remaining by LC-MS/MS using an Applied Bio-systems API 4000 mass spectrometer.
The in vitro t1/2s for test compounds were calculated from the slopes of the linear regression of % parent remaining (ln) vs incubation time relationship. in vitro t1/2=0.693/k, where k=−[slope of linear regression of % parent remaining(ln) vs incubation time]. Data analysis was performed using Microsoft Excel Software.
On the technique in general: Liver microsomes are vesicles of endoplasmic reticulum, rich in cytochrome P450 enzymes.
For `[2H]C([2H])([2H])OC([2H])([2H])COc1cc2ncnc(Nc3cccc(C#C)c3)c2cc1OCC([2H])([2H])OC([2H])([2H])[2H]` [Compound 109, N-(3-(Ethynyl-d1)phenyl)-6,7-bis(2-(methoxy-d3)-2,2-d2-ethoxy) quinazolin-4-amine], the “longer t1/2 compared to erlotinib” value is on record as 44%.

Staying with this data set, now noted: human, microsomes, pH 7.4.
For the compound `[2H]C([2H])([2H])OC([2H])([2H])COc1cc2ncnc(Nc3cccc(C#C)c3)c2cc1OCC([2H])([2H])OC([2H])([2H])[2H]` [Compound 109, N-(3-(Ethynyl-d1)phenyl)-6,7-bis(2-(methoxy-d3)-2,2-d2-ethoxy) quinazolin-4-amine], the half-life (commonly how long it takes for the measured level to halve) at 1 μM was 83.5 min.

For the compound `[2H]C([2H])([2H])OCCOc1cc2ncnc(Nc3cccc(C#C)c3)c2cc1OCCOC([2H])([2H])[2H]` [Compound 105, N-(3-Ethynylphenyl)-6,7-bis(2-(methoxy-d3)ethoxy)quinazolin-4-amine hydrochloride], the half-life at 1 μM is 62.3 min.

`[2H]C([2H])(COc1cc2ncnc(Nc3cccc(C#C)c3)c2cc1OCC([2H])([2H])OC)OC` [Compound 106, N-(3-ethynylphenyl)-6,7-bis(2-methoxyethoxy)quinazolin-4-amine] displayed a half-life at 1 μM of 43.8 min.

For the compound `C#Cc1cccc(Nc2ncnc3cc(OCCOC)c(OCCOC)cc23)c1` [erlotinib, N-(3-ethynylphenyl)-6,7-bis(2-methoxyethoxy)quinazolin-4-amine, reference compound], the half-life at 1 μM stood at 57.8 min.

Compound `[2H]C#Cc1cccc(Nc2ncnc3cc(OCCOC)c(OCCOC)cc23)c1` [Compound 110, N-(3-(Ethynyl-d1)phenyl)-6,7-bis(2-methoxyethoxy) quinazolin-4-amine hydrochloride] yielded a half-life at 1 μM of 42.7 min.
